Experimental data published in patent publication US4486441A, “Pseudotropyl halogeno-benzoates and their use in migraine treatment” (Merrell Toraude Et Compagnie, priority 1982, dated 1984).
Like-named read-outs stand apart in the source and are kept apart here.

Assays:
[1] = molecular target: T1, 5-HT M-receptor (Oryctolagus cuniculus, UniProt A0A5F9C9J3); assay: pA2 against 5-HT in the isolated rabbit heart
T1 construct: determining their pA2 values in the isolated rabbit heart; from tissue; host or cells: isolated rabbit heart
T1 sequence (A0A5F9C9J3 1-494): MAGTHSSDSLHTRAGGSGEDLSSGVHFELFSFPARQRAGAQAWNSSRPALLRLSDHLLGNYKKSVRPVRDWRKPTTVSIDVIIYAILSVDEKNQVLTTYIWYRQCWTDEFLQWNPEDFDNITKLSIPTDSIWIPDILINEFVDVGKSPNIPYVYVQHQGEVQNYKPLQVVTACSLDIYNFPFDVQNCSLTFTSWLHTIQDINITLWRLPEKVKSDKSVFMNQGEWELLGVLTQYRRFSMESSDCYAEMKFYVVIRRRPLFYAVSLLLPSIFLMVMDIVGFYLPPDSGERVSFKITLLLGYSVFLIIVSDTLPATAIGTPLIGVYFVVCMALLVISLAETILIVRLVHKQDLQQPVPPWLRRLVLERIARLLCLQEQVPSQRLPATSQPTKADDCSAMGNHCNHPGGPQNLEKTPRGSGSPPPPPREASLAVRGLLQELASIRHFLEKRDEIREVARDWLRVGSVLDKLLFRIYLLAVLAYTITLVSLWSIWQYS
Method: The activity of the compounds against 5-HT can be assessed by determining their pA2 values in the isolated rabbit heart as described by Fozard et at Europ. J. Pharmacol. 59, 195-210 (1979). In the method described the molar concentration of antagonist which reduces the effects of twice the ED50 of 5-HT to that of the ED50 in the absence of antagonist is determined. The pA2 value is the negative logarithm of said molar concentrations.

[2] = molecular target: T1, 5-HT M-receptor; details: potency as 5-HT M-receptor antagonist; values reported by Fozard et al, Eur. J. Pharmacol. 59(1979) and 49(1978); cited from earlier work
[3] = potency as 5-HT M-receptor antagonist, tests mentioned in the background section, read-out: pA2 (converted)

COc1cc(OC)cc(C(=O)O[C@@H]2C[C@H]3CC[C@@H](C2)N3C)c1 [pseudotropyl-3,5-dimethoxybenzoate]
Kb [1, 3]: 251 nM

CN1[C@@H]2CC[C@H]1C[C@H](OC(=O)c1ccccc1)C2 [pseudotropyl benzoate]
pA2 [2]: 7.0

CN1[C@@H]2CC[C@H]1C[C@@H](OC(=O)c1ccccc1)C2 [benzoyltropine]
pA2 [2]: 7.2

COc1cc(C(=O)O[C@@H]2C[C@H]3CC[C@@H](C2)N3C)cc(OC)c1OC [pseudotropyl-3,4,5-trimethoxybenzoate]
Kb [1, 3]: 2000 nM

CN1[C@@H]2CC[C@H]1C[C@H](OC(=O)c1cc(Cl)cc(Cl)c1)C2 [Example 1, Pseudotropyl 3,5-Dichlorobenzoate (i.e. 3,5-Dichlorobenzoic Acid Exo-8-Methyl-8-Azabicyclo[3,2,1]Oct-3-Yl Ester)]
Kb ([1]; isolated rabbit heart, antagonism of 5-HT, read-out: pA2 (5-HT) (converted)): 2.51 nM
